# Laboratory results as given in EP4205737A1, “COMPOSITION FOR PREVENTION, AMELIORATION, OR TREATMENT OF INFLAMMATORY DISEASES OR IMMUNE DISEASES COMPRISING GANCAONIN N AS ACTIVE INGREDIENT” (UNIVERSITY-INDUSTRY COOPERATION GROUP OF KYUNG HEE …, priority 2020, dated 2022).
# Assays:
# [1] = test system: nitric oxide (NO); assay: Nitric oxide (NO) measurement (Griess reagent) in LPS-stimulated RAW264.7 cells; format: cell-based, murine; details: pretreated 2 hours before LPS 1 µg/mL, 5 to 40 µM, 24 hours, as treatment concentration increased (FIG. 2A)
# Method: Raw264.7 cells and A549 cells were dispensed into 6-well plates (6 × 10^5 cells/well) and cultured under conditions of 37°C and 5% CO2. After the culturing, the cells were treated with 1 µg/mL of lipopolysaccharide (LPS) and with 5 µM to 40 µM of gancaonin N and cultured for 24 hours, and the concentration of NO produced was determined using the cell culture supernatant. The production of NO was measured by reading the absorbance at 540 nm using Griess reagent. Then, a standard curve was drawn using […], and the result value was expressed as […].
# To investigate the anti-inflammatory effect of gancaonin N, the inventors pretreated RAW264.7 cells with gancaonin N, 2 hours before stimulation with LPS, and measured the amount of NO production as described in Examples 1 to 5 above to determine change in the amount of NO production according to the concentration of gancaonin N used to treat the cells.
# [2] = test system: IL-6; assay: Real-time PCR of IL-6 mRNA in LPS-stimulated A549 cells; format: cell-based, human; details: LPS 5 ug/mL, 5 to 40 µM, 24 hours, effect proportional to amount (FIG. 3C)
# Method: A549 cells were dispensed into 6-well plates (1 × 10^6 cells/well) and cultured under conditions of 37°C and 5% CO2. After the culturing, the A549 cells were treated with of 5 ug/mL of lipopolysaccharide (LPS) and with 5 µM to 40 µM of gancaonin N, and the cells were then cultured for 24 hours. Afterwards, total RNA was isolated from each treated cell using Hybrid-RTM (GeneAll, South Korea). The isolated total RNA (500 ng) was converted to cDNA sequentially through incubation at 55°C for 60 minutes using oligo (dT) and incubation at 85°C for 5 minutes, and the cDNA was stored at 4°C until being used. In addition, real-time quantitative PCR was performed using Universal SYBR Green Master Mix (Applied Biosystems, USA), and the cDNA was amplified under conditions described below. 95°C for 15 minutes, then 95°C for 30 seconds, 59°C for 30 seconds, and 72°C for 30 seconds were repeated 40 times. […]
# To investigate the inhibitory effect of gancaonin on the expression levels of pro-inflammatory cytokines, the mRNA expression levels of tumor necrosis factor-α (hereinafter referred to as TNF-α), interleukin-1 beta (hereinafter referred to as IL-1β), and interleukin 6 (hereinafter referred to as IL-6) which are all known as pro-inflammatory cytokines were measured. […]
# [3] = test system: TNF-α; assay: Western blotting of TNF-α protein in LPS-stimulated A549 cells; format: cell-based, human; details: LPS 5 µg/mL, 5 to 40 µM (FIG. 4A)
# Method: (§1) RAW264.7 cells and A549 cells were dispensed into 6-well plates (1 × 10^6 cells/well) and cultured under conditions of 37°C and 5% CO2. After the culturing, the Raw 264.7 cells were treated with 1 µg/mL of lipopolysaccharide (LPS) and the A549 cells were treated with 5 µg/mL of lipopolysaccharide (LPS) and with 5 µM to 40 µM of gancaonin N, and the cells were cultured for 24 hours or 6 hours. Then, the cells were lysed using a lysis buffer. In addition, the left lung extracted from each mouse was lysed using RIPA buffer. SDS-PAGE electrophoresis was performed on the cell and tissue lysates to separate proteins by side, and 5% bovine serum albumin was used for culturing and for blocking antibodies against PGE2 (1:500), IL-1β (1:500), IL-6 (1:500), TNF-α (1:500), i-NOS (1:500), COX-2 (1:1000), P-ERK1/2 (1:1000), ERK1/2 (1:3000), P-p38 (1:1000), p38 (1:3000), NF-κB p65 (1:1000), Lamin B1 (1:1000), and β-actin (1: 5,000).
# (§2) For the pro-inflammatory cytokines whose mRNA expression inhibition was confirmed as above, the expression level of the protein encoded by the mRNA was further checked. To determine the protein expression level, A549 cells were treated with LPS and gancaonin N as described in Examples 1 to 8, and the protein expression levels were checked.
# [4] = test system: IL-6; assay: Western blotting of IL-6 protein in LPS-stimulated A549 cells; format: cell-based, human; details: LPS 5 µg/mL, 5 to 40 µM (FIG. 4C)
# Method: as §1, §2
# [5] = test system: COX-2; assay: Western blotting of COX-2 protein in LPS-stimulated A549 cells; format: cell-based, human; details: LPS 5 µg/mL, 5 to 40 µM (FIG. 4D)
# Method: as §1, §2
# [6] = test system: TNF-α; assay: Western blotting of TNF-α in lung of LPS-induced acute lung injury mouse model; format: in vivo, BALB/c mice; details: mice, 10 mg/kg or 30 mg/kg intraperitoneally, LPS-induced ALI, Western blotting (FIG. 8)
# Method: 25 6-week-old female BALB/c mice having a weight of 18g to 20 g were purchased from BioLink (DBL CO., Eumseong, Chungcheongbuk-do, Korea), and reared in the animal laboratory of KyungHee University. To establish an LPS-induced acute lung injury model, all the mice were divided into five groups each group of which consisted of 5 mice, and the five groups were referred to as control, vehicle (only LPS treatment), gancaonin N (10 mg/kg), gancaonin N (30 mg/kg), and dexamethasone (3 mg/kg). Gancaonin N was intraperitoneally injected at a dose of 10 mg/kg or 30 mg/kg, and dexamethasone was intraperitoneally injected at a dose of 3 mg/kg as a positive control group. In addition, the control and vehicle groups were intraperitoneally injected with 4% DMSO in which gancaonin N was dissolved. Then, 10 µg/50 µL of LPS was intratracheally administered to the mice except for the control group one hour later (the control group mice were administered 50 µL of PBS), and the mice were sacrificed 12 hours later.
# RAW264.7 cells and A549 cells were dispensed into 6-well plates (1 × 10^6 cells/well) and cultured under conditions of 37°C and 5% CO2. […]
# To specifically investigate whether gancaonin N can inhibit pro-inflammatory factors in a mouse model, the protein expression levels of COX-2, IL-1β, and TNF-α were measured by Western blotting as described in Examples 1 to 6 above.
compound,measurement,setting,value
"COc1ccc(-c2coc3cc(O)c(CC=C(C)C)c(O)c3c2=O)c(O)c1 [gancaonin N, 5,7-dihydroxy-3-(2-hydroxy-4-methoxyphenyl)-6-(3-methylbut-2-enyl)chromen-4-one]",production of NO,[1],significantly decreased
same,mRNA expression of IL-6,[2],significantly inhibited
same,protein expression of TNF-α,[3],significantly inhibited
same,protein expression of IL-6,[4],significantly inhibited
same,protein expression of COX-2,[5],significantly inhibited
same,protein expression level of TNF-α in lung,[6],significantly reduced
